Source: patent publication US20200347033A1, “MODULATORS OF THE INTEGRATED STRESS PATHWAY” (Calico Life Sciences LLC, priority 2017, published 2020)

System: HEK293T cells carrying the ATF4 luciferase reporter
Test: ATF4-Luc assay (in vitro model of vanishing white matter disease)
Type: cell-based, human
Conditions: Homo sapiens, HEK-293T; HEK293T cells with ATF4 5'-UTR firefly luciferase reporter; 1 μg/mL tunicamycin; 7 hours; One Glo luminescence
Description: In order to test exemplary compounds of the invention in a cellular context, a stable VWMD cell line was first constructed. The ATF4 reporter was prepared by fusing the human full-length ATF4 5′-UTR (NCBI Accession No. BC022088.2) in front of the firefly luciferase (FLuc) coding sequence lacking the initiator methionine as described in Sidrauski et al (eLife 2013). The construct was used to produce recombinant retroviruses using standard methods and the resulting viral supernatant was used to transduce HEK293T cells, which were then subsequently selected with puromycin to generate a stable cell line.
HEK293T cells carrying the ATF4 luciferase reporter were plated on polylysine coated 384-well plates (Greiner Bio-one) at 30,000 cells per well. Cells were treated the next day with 1 μg/mL tunicamycin and 200 nM of a compound of Formula (I) for 7 hours. Luminescence was measured using One Glo (Promega) as specified by the manufacturer. Cells were maintained in DMEM with L-glutamine supplemented with 10% heat-inactivated FBS (Gibco) and Antibiotic-Antimycotic solution (Gibco).
Table 2 below summarizes the EC50 data obtained using the ATF4-Luc assay for exemplary compounds of the invention.

SMILES | EC50 [nM]
O=C(COc1ccc(Cl)c(F)c1)NC12CCC(N3CCN(c4ccc(Cl)c(F)c4)C3=O)(CC1)CC2O (stereo not shown) [Compound 146, 2-(4-chloro-3-fluorophenoxy)-N-{4-[3-(4-chloro-3-fluorophenyl)-2-oxoimidazolidin-1-yl]-2-hydroxybicyclo[2.2.2]octan-1-yl}acetamide] | < 50
O=C(COc1ccc(Cl)c(Cl)c1)NC12CC(N3CCN(Cc4ccc(Cl)cc4)C3=O)(C1)C2 [Compound 111, N-(3-{3-[(4-chlorophenyl)methyl]-2-oxoimidazolidin-1-yl}bicyclo[1.1.1]pentan-1-yl)-2-(3,4-dichlorophenoxy)acetamide] | > 2000
O=C(CCOc1ccc(Cl)cc1)N[C@H]1CC[C@H](N2CCN(c3cnc(C(F)F)cn3)C2=O)CC1 [Compound 118, 3-(4-chlorophenoxy)-N-[(1r,4r)-4-{3-[5-(difluoromethyl)pyrazin-2-yl]-2-oxoimidazolidin-1-yl}cyclohexyl]propanamide] | > 2000
O=C(COc1ccc(Cl)c(F)c1)NC12CC(N3C(=O)OC(c4ccc(F)cc4)C3=O)(C1)C2 (stereo not shown) [Compound 158, 2-(4-chloro-3-fluorophenoxy)-N-{3-[5-(4-fluorophenyl)-2,4-dioxo-,3-oxazolidin-3-yl]bicyclo[1.1.1]pentan-1-yl}acetamide] | 1000 to 2000
O=C(COc1ccc(Cl)c(F)c1)NC12CC(N3CC(c4ccc(Cl)c(F)c4)CC3=O)(C1)C2 (stereo not shown) [Compound 159, 2-(4-chloro-3-fluorophenoxy)-N-{3-[4-(4-chloro-3-fluorophenyl)-2-oxopyrrolidin-1-yl]bicyclo[1.1.1]pentan-1-yl}acetamide] | < 50
O=C(COc1ccc(Cl)c(F)c1)NC12CC(n3c(=O)[nH]c4cc(Cl)ccc4c3=O)(C1)C2 [Compound 140, N-[3-(7-chloro-2,4-dioxo-1,4-dihydroquinazolin-3(2H)-yl)bicyclo[1.1.1]pentan-1-yl]-2-(4-chloro-3-fluorophenoxy)acetamide] | 250 to 1000
O=C(COc1ccc(Cl)c(F)c1)N[C@H]1CC[C@H](N2CCN(c3ccc(OC(F)(F)F)cn3)C2=O)CC1 [Compound 141, 2-(4-chloro-3-fluorophenoxy)-N-[(1r,4r)-4-{2-oxo-3-[5-(trifluoromethoxy)pyridin-2-yl]imidazolidin-1-yl}cyclohexyl]acetamide] | 50 to 250
O=C(COc1ccc2c(c1)OC(F)(F)O2)N[C@H]1CC[C@H](N2CCN(c3ccc(C(F)F)cn3)C2=O)CC1 [Compound 128, 2-[(2,2-difluoro-2H-1,3-benzodioxol-5-yl)oxy]-N-[(1r,4r)-4-{3-[5-(difluoromethyl)pyridin-2-yl]-2-oxoimidazolidin-1-yl}cyclohexyl]acetamide] | 50 to 250
O=C(COc1ccc(Cl)c(F)c1)NC12CC(N3CC(c4ccc(Cl)cc4)COC3=O)(C1)C2 (stereo not shown) [Compound 169, 2-(4-chloro-3-fluorophenoxy)-N-{3-[5-(4-chlorophenyl)-2-oxo-1,3-oxazinan-3-yl]bicyclo[1.1.1]pentan-1-yl}acetamide] | 250 to 1000
O=C(COc1ccc(Cl)c(F)c1)NC12CCC(N3CC[C@H](c4ccc(Cl)cc4)C3=O)(CC1)C[C@@H]2O (single isomer, unassigned) [Compound 155] | < 50
O=C(N[C@H]1CC[C@H](N2CCN(c3ccc(C(F)F)cn3)C2=O)CC1)OCc1ccccc1 [Compound 129, benzyl [(1r,4r)-4-{3-[5-(difluoromethyl)pyridin-2-yl]-2-oxoimidazolidin-1-yl}cyclohexyl]carbamate] | > 2000
O=c1[nH]c2cc(Cl)ccc2c(=O)n1C12CC(NCCOc3ccc(Cl)c(F)c3)(C1)C2 [Compound 139, 7-chloro-3-(3-{[2-(4-chloro-3-fluorophenoxy)ethyl]amino}bicyclo[1.1.1]pentan-1-yl)quinazoline-2,4(1H,3H)-dione] | > 2000
O=C(COc1ccc(Cl)c(F)c1)NC12CC(N3CCC(c4ccc(F)c(F)c4)OC3=O)(C1)C2 (stereo not shown) [Compound 112, 2-(4-chloro-3-fluorophenoxy)-N-{3-[6-(3,4-difluorophenyl)-2-oxo-1,3-oxazinan-3-yl]bicyclo[1.1.1]pentan-1-yl}acetamide] | > 2000
O=C(N[C@H]1CC[C@H](N2CCN(c3ccc(C(F)F)cn3)C2=O)CC1)c1ccc(Cl)c(F)c1 [Compound 123, 4-chloro-N-[(1r,4r)-4-{3-[5-(difluoromethyl)pyridin-2-yl]-2-oxoimidazolidin-1-yl}cyclohexyl]-3-fluorobenzamide] | > 2000
O=C(COc1ccc(Cl)c(F)c1)NC12CC(N3CCN(c4ccccc4)C3=O)(C1)C2 [Compound 115, 2-(4-chloro-3-fluorophenoxy)-N-[3-(2-oxo-3-phenylimidazolidin-1-yl)bicyclo[1.1.1]pentan-1-yl]acetamide] | 250 to 1000
Cc1nn(C)c(C)c1OC1CCN(C23CC(NC(=O)COc4ccc(Cl)c(F)c4)(C2)C3)C1=O (stereo not shown) [Compound 104, 2-(4-chloro-3-fluorophenoxy)-N-(3-{2-oxo-3-[(1,3,5-trimethyl-1H-pyrazol-4-yl)oxy]pyrrolidin-1-yl}bicyclo[1.1.1]pentan-1-yl)acetamide] | > 2000

SMILES | EC50 [nM]
O=C(COc1ccc(Cl)c(F)c1)N[C@H]1CC[C@H](N2CCN(c3cnc(C(F)F)cn3)C2=O)CC1 [Compound 121, 2-(4-chloro-3-fluorophenoxy)-N-[(1r,4r)-4-{3-[5-(difluoromethyl)pyrazin-2-yl]-2-oxoimidazolidin-1-yl}cyclohexyl]acetamide] | < 50
O=C(COc1ccc(Cl)c(F)c1)NC12CC(C3=NC(c4ccc(Cl)cc4)CO3)(C1)C2 (stereo not shown) [Compound 113, 2-(4-chloro-3-fluorophenoxy)-N-{3-[4-(4-chlorophenyl)-4,5-dihydro-1,3-oxazol-2-yl]bicyclo[1.1.1]pentan-1-yl}acetamide] | 250 to 1000
O=C(COc1ccc(Cl)c(F)c1)NC12CCC(N3CC(c4ccc(Cl)c(F)c4)CC3=O)(CC1)C[C@@H]2O (stereo partly drawn) [Compound 163, 2-(4-chloro-3-fluorophenoxy)-N-{(2S)-4-[4-(4-chloro-3-fluorophenyl)-2-oxopyrrolidin-1-yl]-2-hydroxybicyclo[2.2.2]octan-1-yl}acetamide] | < 50
O=C(COc1ccc(Cl)c(F)c1)N[C@H]1CC[C@H](N2CCN(c3ccccn3)C2=O)CC1 [Compound 130, 2-(4-chloro-3-fluorophenoxy)-N-{(1r,4r)-4-[2-oxo-3-(pyridin-2-yl)imidazolidin-1-yl]cyclohexyl}acetamide] | < 50
O=C(COc1ccc(F)c(F)c1)N[C@H]1CC[C@H](N2CCN(c3ccc(C(F)F)cn3)C2=O)CC1 [Compound 126, N-[(1r,4r)-4-{3-[5-(difluoromethyl)pyridin-2-yl]-2-oxoimidazolidin-1-yl}cyclohexyl]-2-(3,4-difluorophenoxy)acetamide] | < 50
O=C(N[C@H]1CC[C@H](N2CCN(c3cnc(C(F)F)cn3)C2=O)CC1)OCc1ccccc1 [Compound 122, benzyl [(1r,4r)-4-{3-[5-(difluoromethyl)pyrazin-2-yl]-2-oxoimidazolidin-1-yl}cyclohexyl]carbamate] | > 2000
O=C(COc1ccc(Cl)c(F)c1)NC12CC(N3C(=O)c4ccc(Cl)cc4[C@H]3O)(C1)C2 (single isomer, unassigned) [Compound 149] | 250 to 1000
O=C(COc1ccc(Cl)c(F)c1)NC12CC(N3C(=O)c4cc(Cl)ccc4[C@@H]3O)(C1)C2 (single isomer, unassigned) [Compound 148, 2-(4-chloro-3-fluorophenoxy)-N-{3-[(1)-5-chloro-1-hydroxy-3-oxo-1,3-dihydro-2H-isoindol-2-yl]bicyclo[1.1.1]pentan-1-yl}acetamide] | > 2000
O=C(COc1ccc(Cl)c(F)c1)NC12CC(N3C[C@H](c4ccc(Cl)c(F)c4)OC3=O)(C1)C2 (single isomer, unassigned) [Compound 156] | 250 to 1000
O=C(COc1ccc(Cl)c(F)c1)N[C@H]1CC[C@H](N2CCN(c3ccc(Cl)cn3)C2=O)CC1 [Compound 135, 2-(4-chloro-3-fluorophenoxy)-N-{(1r,4r)-4-[3-(5-chloropyridin-2-yl)-2-oxoimidazolidin-1-yl]cyclohexyl}acetamide] | < 50
O=C(COc1ccc(Cl)c(F)c1)NC12CC(n3ccn(-c4ccc(Cl)cc4)c3=O)(C1)C2 [Compound 160, 2-(4-chloro-3-fluorophenoxy)-N-{3-[3-(4-chlorophenyl)-2-oxo-2,3-dihydro-1H-imidazol-1-yl]bicyclo[1.1.1]pentan-1-yl}acetamide] | < 50
O=C(COc1ccc(Cl)c(F)c1)NC12CC(n3c(=O)c4ccc(Cl)cc4n(CCO)c3=O)(C1)C2 [Compound 138, 2-(4-chloro-3-fluorophenoxy)-N-{3-[7-chloro-1-(2-hydroxyethyl)-2,4-dioxo-1,4-dihydroquinazolin-3(2H)-yl]bicyclo[1.1.1]pentan-1-yl}acetamide] | 50 to 250
O=C(COc1ccc(C(F)(F)F)nc1)N[C@H]1CC[C@H](N2CCN(c3ccc(C(F)F)cn3)C2=O)CC1 [Compound 125, N-[(1r,4r)-4-{3-[5-(difluoromethyl)pyridin-2-yl]-2-oxoimidazolidin-1-yl}cyclohexyl]-2-{[6-(trifluoromethyl)pyridin-3-yl]oxy}acetamide] | 50 to 250
O=C(COc1ccc(Cl)c(F)c1)NC12CC(N3C(=O)c4ccc(Cl)cc4[C@@H]3O)(C1)C2 (single isomer, unassigned) [Compound 150] | 1000 to 2000
O=C(COc1ccc(Cl)c(F)c1)NC12CC(N3C[C@@H](c4ccc(Cl)c(F)c4)OC3=O)(C1)C2 (single isomer, unassigned) [Compound 157] | 50 to 250
